Laboratory results published in patent US9453242B2, “Method and culture medium for preparing mammalian ovum or embryo in which zona pellucida has been thinned or eliminated, and method for fertilization using mammalian ovum prepared by same method” (NATIONAL UNIVERISTY CORPORATION KUMAMOTO UNIVERSITY, priority 2010, dated 2016).
Like-named read-outs stand apart in the source and are kept apart here.

System: zona pellucida of mouse fresh unfertilized ovums
Protocol: Mouse fresh unfertilized ovums in which cumulus cells had been removed prepared according to the above-described “1. Preparation of ovum” were prepared. The ovums were treated with an HTF culture medium containing glutathione at a concentration of 100 mM (30.7 mg/ml) at 20° C. for 90 seconds. The operation conducted is explained referring to FIG. 7. Onto the bottom of a petri dish, 10 μl of a glutathione-containing HTF culture medium was dropped, and 10 embryos were inserted into this. […] After confirmation of disappearance of zona pellucida, the embryos were immediately diluted with 1000 μl of an HTF culture medium containing no glutathione, for avoiding damage on the embryos. Thereafter, the zona pellucida-eliminated embryos were transferred into a 100 μl drop of HTF, and further, transferred into a 100 μl drop of HTF twice, thus continuing incubation.
Elimination of the zona pellucida of an unfertilized ovum was conducted in the same manner as in Example 4 excepting use of an HTF culture medium having a glutathione concentration of 50 mM (15.4 mg/ml).
Mouse fresh unfertilized ovums in which cumulus cells had been removed prepared according to the above-described “1. Preparation of oocyte” were prepared, then, 10 μl of an HTF culture medium containing glutathione at various concentrations (5, 10, 25, 50, 100, 200 and 300 mM) was dropped onto the bottom of a petri dish, and 20 ovums were inserted into this, and the time until elimination of zona pellucida was measured.

[1] = glutathione 100 mM (30.7 mg/ml), 20° C.

SMILES: N[C@@H](CCC(=O)N[C@@H](CS)C(=O)NCC(=O)O)C(=O)O [glutathione, reduced glutathione]
- glutathione concentration at which zona pellucida was eliminated: ≥ 50 mM
- condition of zona pellucida (glutathione 5 mM in HTF): thinning
- condition of zona pellucida (glutathione 10 mM in HTF): thinning
- condition of zona pellucida (glutathione 25 mM in HTF): thinning
- condition of zona pellucida (glutathione 50 mM in HTF): elimination
- time (second) necessary for lysis of zona pellucida (glutathione 50 mM in HTF): <1,500 second
- zona pellucida-eliminated embryos produced (glutathione 50 mM, using 20 embryos, 2 experiments): 20
- time after which zona pellucida began to become thin (swell) [1]: 30 s
- time after which zona pellucida disappeared completely [1]: 90 s
- condition of zona pellucida (glutathione 100 mM in HTF): elimination
- time (second) necessary for lysis of zona pellucida (glutathione 100 mM in HTF): <60 s
- zona pellucida-eliminated embryos produced (glutathione 100 mM, using 70 embryos, 10 experiments): 70
- condition of zona pellucida (glutathione 200 mM in HTF): elimination
- time (second) necessary for lysis of zona pellucida (glutathione 200 mM in HTF): <50 s
- condition of zona pellucida (glutathione 300 mM in HTF): elimination
- time (second) necessary for lysis of zona pellucida (glutathione 300 mM in HTF): <10 s
